Reference: patent publication US20160038235A1, “INGENOL MEBUTATE IN COMBINATION WITH LASER THERAPY FOR THE TREATMENT OF HYPE[…] LESIONS” (LEO LABORATORIES LIMITED, priority 2013, published 2016)

Assay: Penetration of ingenol mebutate in static in vitro Franz cell model after fractional Er:YAG laser pre-treatment
Type: in vitro ADME, porcine
Design: Uptake: unit not given here
Conditions: for Uptake: 21 h
Experimental: Penetration of Ingenol mebutate was investigated in a static in vitro Franz cell model, using porcine skin. Prior to ingenol mebutate application, the skin was pre-treated with a fractional 2940 Er:YAG laser. Two settings were used based on pulse durations at 125 or 225 μs, and power at 1.3 or 1.7 W, delivering total energies per laser channel at 11 or 128 mJ, respectively. The settings were investigated at 1, 5 and 10% densities. The shape and depth of the micropores were evaluated in a dissecting microscope. After 21 h in the Franz cells, stratum corneum was tape stripped and liquid chromatography-mass spectrometry (LC-MS) was used to analyze IngMeb concentrations in stratum corneum, skin and receptor fluid.

SMILES: C/C=C(/C)C(=O)O[C@H]1C(C)=C[C@]23C(=O)[C@@H](C=C(CO)[C@@H](O)[C@]12O)[C@H]1[C@@H](C[C@H]3C)C1(C)C [ingenol mebutate]
- Uptake (1—No Laser, Dermis): 508
- Uptake (1—No Laser, Epidermis): 606
- Uptake (1—No Laser, Receiver): 0
- Uptake (1—No Laser, SC): 708
- Enhancement Factor (1—No Laser, Viable skin (reference)): 1
- Uptake (1—No Laser, Viable skin): 1114
- Uptake (2—Superficial 1% (approx. 50 μm micropores), Viable skin): 1340
- Uptake (2—Superficial 1%, Dermis): 843
- Uptake (2—Superficial 1%, Epidermis): 558
- Uptake (2—Superficial 1%, Receiver): 122
- Uptake (2—Superficial 1%, SC): 603
- Enhancement Factor (2—Superficial 1%, Viable skin, vs No laser): 1.20
- Uptake (3—Superficial 5%, Dermis): 1584
- Uptake (3—Superficial 5%, Epidermis): 568
- Uptake (3—Superficial 5%, Receiver): 408
- Uptake (3—Superficial 5%, SC): 135
- Uptake (3—Superficial 5%, Viable skin): 2152
- Enhancement Factor (3—Superficial 5%, Viable skin, vs No laser): 1.93
- Uptake (4—Superficial 10%, Dermis): 1801
- Uptake (4—Superficial 10%, Epidermis): 388
- Uptake (4—Superficial 10%, Receiver): 547
- Uptake (4—Superficial 10%, SC): 59
- Uptake (4—Superficial 10%, Viable skin): 2189
- Enhancement Factor (4—Superficial 10%, Viable skin, vs No laser): 1.97
- Uptake (5—Mid-Dermal-1% (approx. 500 μm micropores), Viable skin): 1510
- Uptake (5—Mid-Dermal-1%, Dermis): 1076
- Uptake (5—Mid-Dermal-1%, Epidermis): 366
- Uptake (5—Mid-Dermal-1%, Receiver): 304
- Uptake (5—Mid-Dermal-1%, SC): 369
- Enhancement Factor (5—Mid-Dermal-1%, Viable skin, vs No laser): 1.35
- Uptake (6—Mid-Dermal 5%, Dermis): 1744
- Uptake (6—Mid-Dermal 5%, Epidermis): 386
- Uptake (6—Mid-Dermal 5%, Receiver): 677
- Uptake (6—Mid-Dermal 5%, SC): 127
- Uptake (6—Mid-Dermal 5%, Viable skin): 2126
- Enhancement Factor (6—Mid-Dermal 5%, Viable skin, vs No laser): 1.91
- Uptake (7—Mid-Dermal 10%, Dermis): 1986
- Uptake (7—Mid-Dermal 10%, Epidermis): 260
- Uptake (7—Mid-Dermal 10%, Receiver): 622
- Uptake (7—Mid-Dermal 10%, SC): 9
- Uptake (7—Mid-Dermal 10%, Viable skin): 2224
- Enhancement Factor (7—Mid-Dermal 10%, Viable skin, vs No laser): 2.00
- accumulation in the epidermis, laser compared with no laser pre-treatment (10% density at 50 μm micropores, all densities at 500 μm micropores): decreased ingenol mebutate in the epidermis
- accumulation in stratum corneum (SC), laser pre-treatment compared with no laser pre-treatment (50 μm and 500 μm micropores, decreasing with increasing density): less ingenol mebutate was accumulated
- increase in ingenol mebutate in the dermis with laser pre-treatment compared with no laser pre-treatment (density dependent (1-10%)): 1.7-3.9 fold
- dermis uptake, 10% density compared with 5%, and 500 μm compared with 50 μm micropores (laser pre-treatment): no added benefit was observed
- improved uptake in the epidermis relative to uptake without use of the laser (maximum): ≤ 4 times
- delivery of ingenol mebutate to dermis, increase following laser pre-treatment compared to no laser pre-treatment (maximum increase): ≤ 4 fold
